Laboratory results published in the supplement of paper PMC6045584.
± gives the standard deviation of the averaged measurements.

What was measured:
SAPACITABINE = compound: CCCCCCCCCCCCCCCC(=O)Nc1ccn([C@@H]2O[C@H](CO)[C@@H](O)[C@@H]2C#N)c(=O)n1 [SAPACITABINE]; experiment: surviving fraction relative to DMSO-only wells; higher = less growth inhibition; conditions: exposure time: 5 days
Procedure, shortened: (§1)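 A line counted only if its three screens reached replicate Pearson r >0.7 and median Z' >0.3. Tumour cells in log phase were seeded at 250–500 per well in 384-well plates and, after 24 hours, kept in continuous contact with inhibitors at 0.5, 1, 5, 10, 50, 100, 500 and 1000 nM for five days. Surviving fraction was taken from CellTiter-Glo luminescence relative to the median of DMSO-only wells.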

TIOGUANINE = compound: Nc1nc2[nH]cnc2c(=S)[nH]1 [TIOGUANINE]; experiment: as above; conditions: exposure time: 5 days
Procedure, shortened: as §1

| Test System | surviving fraction (SAPACITABINE; 0.5 nM) | surviving fraction (SAPACITABINE; 1 nM) | surviving fraction (SAPACITABINE; 5 nM) | surviving fraction (SAPACITABINE; 10 nM) | surviving fraction (SAPACITABINE; 50 nM) | surviving fraction (SAPACITABINE; 100 nM) | surviving fraction (SAPACITABINE; 500 nM) | surviving fraction (SAPACITABINE; 1000 nM) | surviving fraction (TIOGUANINE; 0.5 nM) | surviving fraction (TIOGUANINE; 1 nM) | surviving fraction (TIOGUANINE; 5 nM) | surviving fraction (TIOGUANINE; 10 nM) | surviving fraction (TIOGUANINE; 50 nM) | surviving fraction (TIOGUANINE; 100 nM) | surviving fraction (TIOGUANINE; 500 nM) | surviving fraction (TIOGUANINE; 1000 nM) |
| --- | --- | --- | --- | --- | --- | --- | --- | --- | --- | --- | --- | --- | --- | --- | --- | --- |
| SCC003 HEADNECK | 0.85 ± 0.04 | 0.797 ± 0.068 | 0.885 ± 0.028 | 0.784 ± 0.047 | 1.05 ± 0.041 | 0.879 ± 0.026 | 0.481 ± 0.003 | 0.339 ± 0.014 | 0.892 ± 0.14 | 1 ± 0.1 | 1.01 ± 0.033 | 0.99 ± 0.094 | 0.998 ± 0.098 | 1.1 ± 0.12 | 0.988 ± 0.047 | 0.797 ± 0.027 |
| SUM149.B1*.S BREAST | 0.918 ± 0.067 | 0.792 ± 0.011 | 0.888 ± 0.01 | 0.455 ± 0.022 | 0.839 ± 0.023 | 0.567 ± 0.066 | 0.281 ± 0.022 | 0.428 ± 0.022 | 1.02 ± 0.072 | 1.019 ± 0.0064 | 1.03 ± 0.016 | 1.03 ± 0.056 | 1.02 ± 0.033 | 1 ± 0.015 | 0.993 ± 0.022 | 0.922 ± 0.033 |
| MDAMB468 BREAST | 0.811 ± 0.012 | 0.862 ± 0.087 | 0.88 ± 0.069 | 0.847 ± 0.086 | 0.792 ± 0.03 | 0.56 ± 0.07 | 0.204 ± 0.018 | 0.193 ± 0.028 | 1.02 ± 0.079 | 0.995 ± 0.025 | 1.08 ± 0.056 | 1.06 ± 0.1 | 1.1 ± 0.056 | 1.19 ± 0.087 | 1.04 ± 0.087 | 1.05 ± 0.042 |
| RDES SOFT TISSUE | 0.706 ± 0.16 | 0.765 ± 0.047 | 0.717 ± 0.13 | 0.629 ± 0.12 | 0.919 ± 0.073 | 0.984 ± 0.034 | 0.779 ± 0.15 | 0.117 ± 0.052 | 1.19 ± 0.17 | 1.42 ± 0.042 | 1.33 ± 0.06 | 1.35 ± 0.13 | 1.25 ± 0.17 | 1.19 ± 0.12 | 1.07 ± 0.012 | 1.28 ± 0.15 |
| HCT15 LARGE INTESTINE | 0.76 ± 0.048 | 0.693 ± 0.056 | 0.713 ± 0.064 | 0.298 ± 0.063 | 0.458 ± 0.074 | 0.143 ± 0.021 | 0.141 ± 0.013 | 0.0447 ± 0.0085 | 0.968 ± 0.012 | 0.913 ± 0.05 | 0.979 ± 0.016 | 0.967 ± 0.051 | 1.02 ± 0.067 | 1.06 ± 0.023 | 1.04 ± 0.015 | 0.995 ± 0.012 |
| SKBR3 BREAST | 0.873 ± 0.076 | 0.696 ± 0.054 | 0.756 ± 0.012 | 0.828 ± 0.046 | 0.791 ± 0.15 | 0.572 ± 0.096 | 0.386 ± 0.084 | 0.391 ± 0.051 | 1.03 ± 0.087 | 0.956 ± 0.13 | 0.946 ± 0.13 | 1.04 ± 0.17 | 1.11 ± 0.11 | 0.939 ± 0.03 | 1.08 ± 0.17 | 1.05 ± 0.045 |
| ZR751 BREAST | 1.02 ± 0.049 | 1 ± 0.21 | 1.01 ± 0.14 | 0.888 ± 0.13 | 1.01 ± 0.073 | 0.788 ± 0.011 | 0.627 ± 0.06 | 0.472 ± 0.039 | 1.01 ± 0.07 | 0.969 ± 0.16 | 0.82 ± 0.16 | 0.897 ± 0.064 | 1.12 ± 0.13 | 1.02 ± 0.16 | 1.04 ± 0.013 | 1.07 ± 0.15 |
| H23 LUNG | 0.891 ± 0.02 | 0.894 ± 0.025 | 0.916 ± 0.028 | 0.924 ± 0.015 | 0.868 ± 0.051 | 0.668 ± 0.024 | 0.301 ± 0.013 | 0.264 ± 0.014 | 0.962 ± 0.017 | 0.966 ± 0.044 | 0.974 ± 0.024 | 0.993 ± 0.046 | 0.997 ± 0.058 | 1.04 ± 0.03 | 0.964 ± 0.02 | 0.966 ± 0.025 |
| CME SYNOVIAL | 0.788 ± 0.087 | 0.415 ± 0.05 | 0.703 ± 0.091 | 0.027 ± 0.011 | 0.922 ± 0.077 | 0.379 ± 0.075 | 0.248 ± 0.016 | 0.034 ± 0.0076 | 1.07 ± 0.067 | 1.22 ± 0.12 | 1.16 ± 0.051 | 1.22 ± 0.03 | 1.29 ± 0.021 | 1.32 ± 0.19 | 1.24 ± 0.054 | 1.08 ± 0.18 |
| CAL51 BREAST | 0.878 ± 0.1 | 0.838 ± 0.14 | 0.977 ± 0.074 | 0.929 ± 0.1 | 0.789 ± 0.0083 | 0.533 ± 0.13 | 0.112 ± 0.022 | 0.0657 ± 0.014 | 0.984 ± 0.03 | 0.965 ± 0.017 | 0.999 ± 0.018 | 1 ± 0.031 | 1.03 ± 0.049 | 1.06 ± 0.038 | 0.992 ± 0.051 | 0.979 ± 0.026 |
| MHM BONE | 0.975 ± 0.036 | 0.97 ± 0.058 | 0.978 ± 0.034 | 0.996 ± 0.028 | 0.951 ± 0.027 | 0.789 ± 0.043 | 0.305 ± 0.012 | 0.262 ± 0.03 | 0.987 ± 0.028 | 0.9777 ± 0.0058 | 1.01 ± 0.024 | 0.986 ± 0.011 | 1.026 ± 0.0069 | 1.039 ± 0.0067 | 0.983 ± 0.028 | 0.999 ± 0.018 |
| MDAMB436 BREAST | 0.861 ± 0.07 | 0.795 ± 0.08 | 0.75 ± 0.074 | 0.719 ± 0.075 | 0.561 ± 0.029 | 0.497 ± 0.053 | 0.445 ± 0.049 | 0.352 ± 0.013 | 0.892 ± 0.057 | 0.837 ± 0.05 | 0.864 ± 0.059 | 0.932 ± 0.028 | 1.03 ± 0.096 | 0.906 ± 0.13 | 0.921 ± 0.094 | 0.928 ± 0.065 |
| HSSYII SYNOVIAL | 0.797 ± 0.015 | 0.636 ± 0.061 | 0.726 ± 0.032 | 0.132 ± 0.022 | 0.537 ± 0.033 | 0.315 ± 0.005 | 0.123 ± 0.0085 | 0.0603 ± 0.0046 | 0.927 ± 0.055 | 0.911 ± 0.028 | 0.954 ± 0.05 | 0.92 ± 0.027 | 0.941 ± 0.055 | 0.972 ± 0.049 | 0.885 ± 0.02 | 0.842 ± 0.059 |
| HUO3N1 BONE | 0.915 ± 0.032 | 0.908 ± 0.036 | 0.931 ± 0.037 | 0.935 ± 0.024 | 0.886 ± 0.056 | 0.766 ± 0.056 | 0.528 ± 0.012 | 0.438 ± 0.019 | 0.992 ± 0.071 | 1.02 ± 0.098 | 1.1 ± 0.059 | 0.98 ± 0.058 | 1.02 ± 0.019 | 1.06 ± 0.049 | 1.06 ± 0.055 | 1.02 ± 0.018 |
